Source: patent US11040031B2, “Pyrazole derivatives as MALT1 inhibitors” (Janssen Pharmaceutica NV, priority 2018, dated 2021)
pIC50: −log10 of the molar value. Read-outs that look alike come from different tables or passages of the source.

Legend:
[1] = test system: Secretion of IL10 by OCI-LY3 ABC-DLBCL cells; experiment: Human IL10 Mesoscale assay (OCI-LY3); format: cell-based; details: read-out: Human IL10 Mesoscale assay (OCI-LY3)
Procedure: (§1) NFKB signaling regulates the secretion of multiple cytokines, including IL6 and IL10. Secretion of the cytokines IL6 and IL10 by TMD8 or OCI-LY3 ABC-DLBCL cells was measured using a mesoscale assay.
(§2) Cell passage number should not exceed 30. Cells should be kept between 0.5-2.5 million cells per mL during culturing and cells should be supplemented every 2-3 days with fresh 50 µM beta-mercaptoenthanol. No beta-mercaptoethanol was used during the mesoscale assay.
(§3) DMSO control wells were used to determine the maximum signal (High Control (HC)). […] Compounds and cells were incubated for 24 h at 37° C. and 5% CO2 (assay volume is 150 μL). After 24 h of incubation 50 μL of the supernatant was transferred to a MSD plate (V-Plex Proinflammation Panel 1 (human) kit, Mesoscale (MSD)) and incubated for 2 h with vigorous shaking (600 rpm) at room temperature. Following incubation, plates were washed 3× with PBS+0.05% Tween-20 and 25 μL detection antibody solution (IL6 & IL10 antibodies in diluent 3 (MSD)) was added per well followed by 2 h of incubation with vigorous shaking (600 rpm) at room temperature. After 3× washes with PBS+0.05% Tween-20, plates were incubated with 150 μL 2× Read Buffer T and read on SECTOR imager.

[2] = test system: Secretion of IL6 by OCI-LY3 ABC-DLBCL cells; experiment: Human IL6 Mesoscale assay (OCI-LY3); format: cell-based; details: read-out: Human IL6 Mesoscale assay (OCI-LY3)
Procedure: as §1, §2, §3

[3] = target: T1, full-length MALT1 protein (Strep-MALT1(1-824)-His) (Homo sapiens, UniProt Q9UDY8); experiment: biochemical;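 note: fluorogenic LRSR-AMC substrate cleavage by MALT1, 50 min compound preincubation then 4 h reaction at RT, 11-point dilution from 30 µM, scaled between enzyme-free and untreated enzyme controls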
T1 sequence (Q9UDY8 1-824): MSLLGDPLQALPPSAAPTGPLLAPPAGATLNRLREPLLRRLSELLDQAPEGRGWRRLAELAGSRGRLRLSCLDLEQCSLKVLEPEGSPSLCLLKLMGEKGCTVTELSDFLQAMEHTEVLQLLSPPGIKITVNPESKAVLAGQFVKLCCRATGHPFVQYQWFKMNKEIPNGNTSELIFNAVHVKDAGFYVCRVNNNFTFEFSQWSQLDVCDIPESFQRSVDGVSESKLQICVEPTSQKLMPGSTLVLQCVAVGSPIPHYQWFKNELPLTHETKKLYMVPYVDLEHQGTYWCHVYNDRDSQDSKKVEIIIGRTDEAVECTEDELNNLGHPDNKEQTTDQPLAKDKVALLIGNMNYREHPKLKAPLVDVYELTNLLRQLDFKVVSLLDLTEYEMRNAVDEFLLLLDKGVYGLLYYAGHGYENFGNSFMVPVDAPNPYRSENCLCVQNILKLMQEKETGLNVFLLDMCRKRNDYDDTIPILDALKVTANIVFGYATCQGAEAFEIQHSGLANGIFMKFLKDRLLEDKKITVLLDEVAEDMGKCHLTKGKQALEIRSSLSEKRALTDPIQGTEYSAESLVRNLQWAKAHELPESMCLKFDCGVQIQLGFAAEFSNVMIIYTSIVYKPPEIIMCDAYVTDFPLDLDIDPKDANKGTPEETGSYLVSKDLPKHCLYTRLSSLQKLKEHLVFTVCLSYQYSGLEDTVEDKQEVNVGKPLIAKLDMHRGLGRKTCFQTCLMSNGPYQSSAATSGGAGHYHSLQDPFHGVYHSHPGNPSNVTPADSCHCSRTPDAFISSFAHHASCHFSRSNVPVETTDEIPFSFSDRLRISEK

[4] = OCI-LY3 cells, 24 h incubation, supernatant, MSD V-Plex

**Q.** How did the pIC50 [1, 4] turn out when `Cc1cc(C#N)ccc1-n1ncc(C(=O)Nc2cnc(-n3nccn3)c(Cl)c2)c1C(F)(F)F` [Cpd 37, N-(5-chloro-6-(2H-1,2,3-triazol-2-yl)pyridin-3-yl)-1-(4-cyano-2-methylphenyl)-5-(trifluoromethyl)-1H-pyrazole-4-carboxamide] was run?
**A.** 7.20

**Q.** What about the pIC50 [2, 4] of the same molecule?
**A.** 7.02

**Q.** And the pIC50 [3]?
**A.** 7.20

**Q.** With `O=C(Nc1cnc(-n2nccn2)c(Cl)c1)c1cnn(-c2ccc(F)c(F)c2Cl)c1C(F)(F)F` [Cpd 73, 1-(2-chloro-3,4-difluorophenyl)-N-(5-chloro-6-(2H-1,2,3-triazol-2-yl)pyridin-3-yl)-5-(trifluoromethyl)-1H-pyrazole-4-carboxamide] as the molecule, how does the pIC50 [1, 4] read?
**A.** 6.96

**Q.** What about the pIC50 [2, 4] of the same molecule?
**A.** 6.86

**Q.** What about the pIC50 [3] of the same molecule?
**A.** 6.63

**Q.** With `N#Cc1cc(NC(=O)c2cnn(-c3ccc(F)c(F)c3F)c2C(F)(F)F)cnc1-n1nccn1` [Cpd 97, N-(5-cyano-6-(2H-1,2,3-triazol-2-yl)pyridin-3-yl)-5-(trifluoromethyl)-1-(2,3,4-trifluorophenyl)-1H-pyrazole-4-carboxamide] as the molecule, how does the pIC50 [1, 4] read?
**A.** 7.02

**Q.** What about the pIC50 [2, 4] of the same molecule?
**A.** 6.82

**Q.** And the pIC50 [3]?
**A.** 6.58

**Q.** `N#Cc1cc(NC(=O)c2cnn(-c3c(Cl)cc(F)cc3Cl)c2C(F)(F)F)cnc1-n1nccn1` [Cpd 102, N-(5-cyano-6-(2H-1,2,3-triazol-2-yl)pyridin-3-yl)-1-(2,6-dichloro-4-fluorophenyl)-5-(trifluoromethyl)-1H-pyrazole-4-carboxamide] was tested. Which pIC50 ([1]; OCI-Ly3, 24 h) did it give?
**A.** 6.80

**Q.** What about the pIC50 ([2]; OCI-Ly3, 24 h) of the same molecule?
**A.** 6.80

**Q.** And the pIC50 [3]?
**A.** 6.82

**Q.** Which results are given for `O=C(Nc1cnc(-n2nccn2)c(Cl)c1)c1cnn(-c2ccc(F)cc2Cl)c1C(F)(F)F` [Cpd 107, 1-(2-chloro-4-fluorophenyl)-N-(5-chloro-6-(2H-1,2,3-triazol-2-yl)pyridin-3-yl)-5-(trifluoromethyl)-1H-pyrazole-4-carboxamide]?
**A.** pIC50 [1, 4]: 6.95; pIC50 [2, 4]: 6.80; pIC50 [3]: 6.85

**Q.** `Cc1cc(F)cnc1-n1ncc(C(=O)Nc2cnc(-n3nccn3)c(C#N)c2)c1C(F)(F)F` [Cpd 113, N-(5-cyano-6-(2H-1,2,3-triazol-2-yl)pyridin-3-yl)-1-(5-fluoro-3-methylpyridin-2-yl)-5-(trifluoromethyl)-1H-pyrazole-4-carboxamide] was tested. Which pIC50 [1, 4] did it give?
**A.** 6.49

**Q.** What about the pIC50 [2, 4] of the same molecule?
**A.** 6.43

**Q.** And the pIC50 [3]?
**A.** 6.80

**Q.** How did the pIC50 [1, 4] turn out when `N#Cc1cc(NC(=O)c2cnn(-c3ccccc3Cl)c2C(F)(F)F)cnc1-n1nccn1` [Cpd 116, 1-(2-chlorophenyl)-N-(5-cyano-6-(2H-1,2,3-triazol-2-yl)pyridin-3-yl)-5-(trifluoromethyl)-1H-pyrazole-4-carboxamide] was run?
**A.** 6.98

**Q.** What about the pIC50 [2, 4] of the same molecule?
**A.** 6.97

**Q.** And the pIC50 [3]?
**A.** 6.93

**Q.** With `Nc1ccnc(-n2ncc(C(=O)Nc3cnc(-n4nccn4)c(Cl)c3)c2C(F)(F)F)c1Cl` [Cpd 119, 1-(4-Amino-3-chloropyridin-2-yl)-N-(5-chloro-6-(2H-1,2,3-triazol-2-yl)pyridin-3-yl)-5-(trifluoromethyl)-1H-pyrazole-4-carboxamide] as the molecule, how does the pIC50 [1, 4] read?
**A.** 6.83

**Q.** And the pIC50 [2, 4]?
**A.** 6.55

**Q.** And the pIC50 [3]?
**A.** 6.68

**Q.** With `Cc1cc(C#N)ccc1-n1ncc(C(=O)Nc2cnc(-n3nccn3)c(C#N)c2)c1C(F)(F)F` [Cpd 126, 1-(4-cyano-2-methylphenyl)-N-(5-cyano-6-(2H-1,2,3-triazol-2-yl)pyridin-3-yl)-5-(trifluoromethyl)-1H-pyrazole-4-carboxamide] as the molecule, how does the pIC50 ([1]; OCI-Ly3, 24 h) read?
**A.** 7.17

**Q.** What about the pIC50 ([2]; OCI-Ly3, 24 h) of the same molecule?
**A.** 7.12

**Q.** And the pIC50 [3]?
**A.** 7.42

**Q.** How did the pIC50 [1, 4] turn out when `CSc1ccccc1-n1ncc(C(=O)Nc2cnc(-n3nccn3)c(Cl)c2)c1C(F)(F)F` [Cpd 137, N-(5-chloro-6-(2H-1,2,3-triazol-2-yl)pyridin-3-yl)-1-(2-(methylthio)phenyl)-5-(trifluoromethyl)-1H-pyrazole-4-carboxamide] was run?
**A.** 7.00

**Q.** What about the pIC50 [2, 4] of the same molecule?
**A.** 6.91

**Q.** And the pIC50 [3]?
**A.** 6.82

**Q.** Which results are given for `Cc1c(-n2ncc(C(=O)Nc3cnc(-n4nccn4)c(Cl)c3)c2C(F)(F)F)ccc(F)c1F` [Cpd 174, N-(5-chloro-6-(2H-1,2,3-triazol-2-yl)pyridin-3-yl)-1-(3,4-difluoro-2-methylphenyl)-5-(trifluoromethyl)-1H-pyrazole-4-carboxamide]?
**A.** pIC50 [1, 4]: 7.08; pIC50 [3]: 6.77

**Q.** `Cc1cc(N)ncc1-n1ncc(C(=O)Nc2cnc(-n3nccn3)c(Cl)c2)c1C(F)(F)F` [Cpd 191, 1-(6-amino-4-methylpyridin-3-yl)-N-(5-chloro-6-(2H-1,2,3-triazol-2-yl)pyridin-3-yl)-5-(trifluoromethyl)-1H-pyrazole-4-carboxamide] was tested. Which pIC50 [3] did it give?
**A.** 6.14

**Q.** `Nc1ccc(C(F)(F)F)c(-n2ncc(C(=O)Nc3cnc(-n4nccn4)c(Cl)c3)c2C(F)(F)F)n1` [Cpd 192, 1-(6-amino-3-(trifluoromethyl)pyridin-2-yl)-N-(5-chloro-6-(2H-1,2,3-triazol-2-yl)pyridin-3-yl)-5-(trifluoromethyl)-1H-pyrazole-4-carboxamide] was tested. Which pIC50 [3] did it give?
**A.** 5.95

**Q.** With `N#Cc1cc(NC(=O)c2cnn(-c3ccc(N)nc3)c2C(F)(F)F)cnc1-n1nccn1` [Cpd 194, 1-(6-aminopyridin-3-yl)-N-(5-cyano-6-(2H-1,2,3-triazol-2-yl)pyridin-3-yl)-5-(trifluoromethyl)-1H-pyrazole-4-carboxamide] as the molecule, how does the pIC50 [3] read?
**A.** 5.93

**Q.** `Cc1nc(N)ccc1-n1ncc(C(=O)Nc2cnc(-n3nccn3)c(C#N)c2)c1C(F)(F)F` [Cpd 196, 1-(6-amino-2-methylpyridin-3-yl)-N-(5-cyano-6-(2H-1,2,3-triazol-2-yl)pyridin-3-yl)-5-(trifluoromethyl)-1H-pyrazole-4-carboxamide] was tested. Which pIC50 [3] did it give?
**A.** 5.88

**Q.** How did the pIC50 [3] turn out when `Cc1ccc(-n2ncc(C(=O)Nc3cc(C#N)c(-n4nccn4)nc3C)c2C(F)(F)F)nc1N` [Cpd 197, 1-(6-amino-5-methylpyridin-2-yl)-N-(5-cyano-2-methyl-6-(2H-1,2,3-triazol-2-yl)pyridin-3-yl)-5-(trifluoromethyl)-1H-pyrazole-4-carboxamide] was run?
**A.** 5.60

**Q.** With `Cc1nc(-n2nccn2)c(Cl)cc1NC(=O)c1cnn(-c2ccc(C(N)=O)c(N)n2)c1C(F)(F)F` [Cpd 198, 2-amino-6-(4-((5-chloro-2-methyl-6-(2H-1,2,3-triazol-2-yl)pyridin-3-yl)carbamoyl)-5-(trifluoromethyl)-1H-pyrazol-1-yl)nicotinamide] as the molecule, how does the pIC50 [3] read?
**A.** 5.43

**Q.** `Cc1c(-n2ncc(C(=O)Nc3cnc(-n4nccn4)c(Cl)c3)c2C(F)(F)F)ccnc1N` [Cpd 199, 1-(2-amino-3-methylpyridin-4-yl)-N-(5-chloro-6-(2H-1,2,3-triazol-2-yl)pyridin-3-yl)-5-(trifluoromethyl)-1H-pyrazole-4-carboxamide] was tested. Which pIC50 [3] did it give?
**A.** 6.76

**Q.** With `Cc1nc(C#N)ccc1-n1ncc(C(=O)Nc2cnc(-n3nccn3)c(Cl)c2)c1C(F)(F)F` [Cpd 201, N-(5-chloro-6-(2H-1,2,3-triazol-2-yl)pyridin-3-yl)-1-(6-cyano-2-methylpyridin-3-yl)-5-(trifluoromethyl)-1H-pyrazole-4-carboxamide] as the molecule, how does the pIC50 [3] read?
**A.** 6.86

**Q.** How did the pIC50 [3] turn out when `O=C(Nc1cnc(-n2nccn2)c(Cl)c1)c1cnn(-c2cccc(Br)n2)c1C(F)(F)F` [Cpd 202, 1-(6-bromopyridin-2-yl)-N-(5-chloro-6-(2H-1,2,3-triazol-2-yl)pyridin-3-yl)-5-(trifluoromethyl)-1H-pyrazole-4-carboxamide] was run?
**A.** 6.13

**Q.** `O=C(Nc1cnc(-n2nccn2)c(Cl)c1)c1cnn(-c2cccc(-c3ccco3)n2)c1C(F)(F)F` [Cpd 207, N-(5-chloro-6-(2H-1,2,3-triazol-2-yl)pyridin-3-yl)-1-(6-(furan-2-yl)pyridin-2-yl)-5-(trifluoromethyl)-1H-pyrazole-4-carboxamide] was tested. Which pIC50 [3] did it give?
**A.** 5.25

**Q.** `O=C(Nc1cnc(-n2nccn2)c(Cl)c1)c1cnn(-c2cccc(C3=COCCO3)n2)c1C(F)(F)F` [Cpd 208, N-(5-chloro-6-(2H-1,2,3-triazol-2-yl)pyridin-3-yl)-1-(6-(5,6-dihydro-1,4-dioxin-2-yl)pyridin-2-yl)-5-(trifluoromethyl)-1H-pyrazole-4-carboxamide] was tested. Which pIC50 [3] did it give?
**A.** 5.29
